# Patent US20170312253A1 (The Third Affiliated Hospital, Third Military Medical …, priority 2014, published 2017)
# How the values were obtained:
# [1] = target: T1, β-secretase (BACE1) (Mus musculus, UniProt P56818); assay: β-secretase activity in brain tissues (kit); format: in vivo; details: AD mice brain
# T1 construct: The proteins in the brain tissue homogenates were extracted with a RIP A buffer solution; from tissue; host or cells: brain of APPswe/PS1DE9 mice
# Procedure: (§1) APPswe/PS1DE9 (AD) transgenic mice were purchased from Jackson Laboratory, USA (No. 005864), raised in the SPF grade animal house of The Third Affiliated Hospital of The Third Military Medical University. All the processes and correlated experiments applied to the mice were approved and filed with the Animal Ethics Committee of the Third Military Medical University. […] Alternatively, the daily dose for the prophylactic group may be 6.4 mg/kg, and the daily dose for the treatment group may be 12.8 mg/kg. Administration from 3-month old to 9-month old is the prophylactic test, and administration from 9-month old to 12-month old is the therapeutic test After reaching a stated time, the mice in each group received behavioral tests according to the method in the follows. Three mice in each group were taken for Golgi staining. The remaining mice were overly anaesthetized to receive brain anatomy. One side of the cerebral hemisphere was frozen and then for a biochemical analysis, and the other side of the cerebral hemisphere was fixed with 4% paraform for a histological analysis.
# (§2) After homogenating the frozen brain tissues, extraction was conducted with TBS, SDS and formic acid successively. The TBS, SDS and formic acid extracts represent soluble Aβ, loosen senile plaques and compact senile plaques, respectively. […]
# [2] = test system: SH-SY5Y cells; assay: Neurite growth detection, Aβ-treated SH-SY5Y cells; format: cell-based; details: 1 μM Aβ, 24 h
# Procedure: (§3) The SH-SY5Y cell line was purchased from the Peking Union Hospital Cell Bank, cultured in a humidified incubator under 5% CO2 and 37° C., A MTT cell viability assay was performed according to the instructions in the kit (Sigma). […] The optical density values were determined at a wavelength of 563 nm (Synergy H4, Bio Tek). The neurite growth test was performed according to the method described in the prior documents (see, for example, Wang, Y. J., et al., Effects of proNGF on neuronal viability, neurite growth and amyloid-beta metabolism. Neurotox Res, 2010, 17(3): p. 257-67).
# [3] = test system: Aβ induced oxidative stress; assay: ROS detection; format: cell-based
# Procedure: The ROS detection was performed according to the scheme provided by the manufacturer (Cell Biolabs Inc).
# [4] = test system: SH-SY5Y cells; assay: MTT cell viability assay, Aβ-treated SH-SY5Y cells; format: cell-based; details: 1 μM Aβ oligomers, 24 h, dose-dependent
# Procedure: as §3
# [5] = test system: Aβ deposition in the brain; assay: Quantitative analysis of Aβ deposition in the brain (Congo red, 6E10); format: in vivo; details: AD mice, Congo red staining and 6E10 immunostaining
# Procedure: as §1
# The compact Aβ plaque was stained and labelled with Congo red. […] The Aβ plaques in the neopallium and hippocampal area were quantitatively analyzed with ImageJ analysis software to obtain the area percentage of the Aβ plaque and the quantities in a unit area.
# [6] = test system: oxidation level in the brain; assay: Oxidation level in brain tissues, DNPH Western blotting; format: in vivo; details: AD mice
# Procedure: as §1, with “The remaining mice were overly anaesthetized to receive brain anatomy. One side of the cerebral hemisphere was frozen and then for a biochemical analysis, and the other side of the cerebral hemisphere was fixed with 4% paraform for a histological analysis.” left out
# The carbonyl level of the proteins in the tissue reflects the oxidation level in the tissue. DNPH is reacted with the carbonyl of the proteins to form a protein-DNP hydrazone complex, and the level of the complex can he detected with DNPH antibodies so as to assess the oxidation level in the tissue, A 5 μl sample of fresh brain tissues was co-incubated with 12% SDS and a 10 μl DNPH working solution at room temperature for 20 min. […] Samples containing 15 μg total proteins were loaded and detected with Western blot. […]
# [7] = target: Gsk-3β (Homo sapiens, UniProt P49841); assay: In vitro test of Gsk-3β activities
# [8] = test system: RAGE; assay: Western blot of Aβ metabolizing enzymes in brain: RAGE; format: in vivo; details: AD mice brain
# Procedure: APPswe/PS1DE9 (AD) transgenic mice were purchased from Jackson Laboratory, USA (No. 005864), raised in the SPF grade animal house of The Third Affiliated Hospital of The Third Military Medical University. All the processes and correlated experiments applied to the mice were approved and filed with the Animal Ethics Committee of the Third Military Medical University. […] Alternatively, the daily dose for the prophylactic group may be 6.4 mg/kg, and the daily dose for the treatment group may be 12.8 mg/kg. […]
# The enzymes related with Aβ formation and degradation their molecule levels, the levels of hyperphosphprylated Tau proteins, and the levels of synaptic plasticity correlated proteins were all detected with Western blot. […] The blotting was detected with the following antibodies: APP C terminal antibody (171610, Millipore), BACE1 antibody (Millipore), Aβ antibody (6E10, Abcam), Nepriiysin antibody (Millipore), RAGE antibody (Millipore), LRP antibody (5A6, Calbiochem), IDE antibody (epitomics), phosphorylated Tau protein antibody, including pS396 (Signalway), pT231 (Signalway), pS199 (epitomics), pS262 (Abcam), SNAP25 antibody (Millipore), Synaptophysin antibody (Millipore), Synapsin I antibody (Millipore), VAMP1 antibody (Millipore), PSD95 antibody (Millipore), F-actin antibody (Actin) (Sigma-Aldrich). […]
# [9] = test system: microglia; assay: Microglia reaction immunostaining (CD45); format: in vivo; details: AD mice
# Procedure: as §1
# Immunohistochemistry in the method of bleach section was carried out according to the previous steps. The primary antibodies were rabbit-anti-mouse CD45 antibody (for labelling microglias), rabbit-anti-mouse GFAP (for labelling astrocytes) and rabbit-anti-mouse pSer396-Tau antibody, respectively. […]
# [10] = target: Aβ fibers (Aβ 42) (Homo sapiens, UniProt P05067); assay: Thioflavin T fluorescence test, disaggregation of Aβ fibers; format: biochemical; details: preformed Aβ fibers, Edaravone 0-100 μM, three days
# [11] = test system: α-secretase; assay: α-secretase activity in brain tissues (kit); format: in vivo; details: AD mice brain
# Procedure: as §1, §2
# [12] = test system: BACE; assay: In vitro test of BACE expression
# Chain of Gsk-3β (P49841 whole entry, species assumed): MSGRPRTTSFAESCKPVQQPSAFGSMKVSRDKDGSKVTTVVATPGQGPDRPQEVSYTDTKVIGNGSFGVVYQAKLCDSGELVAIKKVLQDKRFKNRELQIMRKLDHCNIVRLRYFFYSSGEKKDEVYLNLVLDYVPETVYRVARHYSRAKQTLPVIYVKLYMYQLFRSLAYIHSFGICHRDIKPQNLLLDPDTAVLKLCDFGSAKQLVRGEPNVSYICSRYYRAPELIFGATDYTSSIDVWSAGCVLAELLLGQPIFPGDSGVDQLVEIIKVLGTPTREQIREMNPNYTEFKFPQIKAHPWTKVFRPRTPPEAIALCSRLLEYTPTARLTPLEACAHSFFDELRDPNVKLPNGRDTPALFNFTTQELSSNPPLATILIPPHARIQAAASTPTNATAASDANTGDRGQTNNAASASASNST
# T1 sequence (P56818 46-501): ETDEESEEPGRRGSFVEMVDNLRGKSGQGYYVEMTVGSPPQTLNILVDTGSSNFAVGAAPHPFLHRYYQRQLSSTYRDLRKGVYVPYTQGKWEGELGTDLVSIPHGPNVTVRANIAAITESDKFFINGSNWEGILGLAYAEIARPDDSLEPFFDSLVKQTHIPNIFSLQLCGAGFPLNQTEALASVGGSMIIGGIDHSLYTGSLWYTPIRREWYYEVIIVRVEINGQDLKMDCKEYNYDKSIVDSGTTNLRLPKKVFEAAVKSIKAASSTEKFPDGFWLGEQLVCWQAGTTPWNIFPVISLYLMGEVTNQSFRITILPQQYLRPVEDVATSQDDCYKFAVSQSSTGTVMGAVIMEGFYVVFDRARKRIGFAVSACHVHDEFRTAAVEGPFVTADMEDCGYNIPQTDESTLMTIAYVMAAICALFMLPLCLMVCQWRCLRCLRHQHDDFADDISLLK
# Chain of Aβ fibers (Aβ 42) (P05067 672-713 limits assumed): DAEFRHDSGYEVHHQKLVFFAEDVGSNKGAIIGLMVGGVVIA
structure (smiles),measurement,setting,value
"CC1=NN(c2ccccc2)C(=O)C1 [Edaravone, 3-methyl-1-phenyl-2-pyrazolin-5-one]",activity of β-secretase (BACE1),[1],significant decrease
same,all-trans-Retinoic acid induced neurite length,[2],neurite length also increases
same,Aβ induced oxidative stress (ROS test),[3],reverse the Aβ induced oxidative stress
same,cell survival rate,[4],cell survival rate increases significantly
same,"Aβ deposition in the brain, of the control group",[5],about 50%
same,oxidation level in the brain,[6],significantly reduces the oxidation level
same,Gsk-3β activities in vitro,[7],inhibits the Gsk-3β activities
same,influence on RAGE,[8],no influence
same,microglia reaction level in the brain,[9]; p.o.,"significantly reduced, too"
same,microglia reaction in the brain,[9]; prophylactic and therapeutic test,all reduced significantly
same,disaggregation of formed Aβ fibers (thioflavin T),[10],disaggregate the formed Aβ fibers or larger aggregates effectively
same,activity of α-secretase,[11],increase of the activity of α-secretase
same,BACE expression in vitro,[12],inhibits the BACE expression
